Measurements reported in the supplement of paper PMC11061612.

How the values were obtained:
Assay in all cases: combination Emax (second highest fraction inhibited in the dose matrix, 72 h); higher = more inhibition; extreme values may be limits of the assay
[1] = tested on: KCL-22 (Chronic Myelogenous Leukemia)
Method in brief: (§1)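 Bliss excess equals the observed combination effect minus the expected value EA + EB − EA·EB, where EA and EB are the effects of each agent alone. Combination Emax is the second-highest inhibition within the matrix. Inhibition was scaled from CellTiter-Glo 2.0 luminescence, with 0 set by vehicle wells and 1 by blank wells, after 72 hours of two-drug dosing of cells plated in 1536-well plates.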

[2] = tested on: P12-ICHIKAWA (T-Lymphoblastic Leukemia)
Method in brief: as §1

[3] = tested on: COLO-678 (Colorectal Carcinoma)
Method in brief: as §1

[4] = tested on: WIL2-NS (Non-Cancerous)
Method in brief: as §1

[5] = tested on: KYSE-180 (Esophageal Squamous Cell Carcinoma)
Method in brief: as §1

[6] = tested on: L-540 (Hodgkin's Lymphoma)
Method in brief: as §1

[7] = tested on: LN-18 (Glioblastoma)
Method in brief: as §1

[8] = tested on: TC-71 (Ewing's Sarcoma)
Method in brief: as §1

[9] = tested on: MFM-223 (Breast Carcinoma)
Method in brief: as §1

[10] = tested on: BFTC-905 (Bladder Carcinoma)
Method in brief: as §1

[11] = tested on: PANC-08-13 (Pancreatic Carcinoma)
Method in brief: as §1

[12] = tested on: DND-41 (T-Lymphoblastic Leukemia)
Method in brief: as §1

[13] = tested on: U251 (Low Grade Glioma)
Method in brief: as §1

[14] = tested on: MEL-JUSO (Melanoma)
Method in brief: as §1

[15] = tested on: EVSA-T (Breast Carcinoma)
Method in brief: as §1

[16] = tested on: MOLT-16 (T-Lymphoblastic Leukemia)
Method in brief: as §1

[17] = tested on: ES1 (Ewing's Sarcoma)
Method in brief: as §1

[18] = tested on: TOV-112D (Ovarian Carcinoma)
Method in brief: as §1

[19] = tested on: NCI-H2818 (Mesothelioma)
Method in brief: as §1

[20] = tested on: SW1417 (Colorectal Carcinoma)
Method in brief: as §1

Structure (SMILES)	combination Emax [1]	combination Emax [2]	combination Emax [3]	combination Emax [4]	combination Emax [5]	combination Emax [6]	combination Emax [7]	combination Emax [8]	combination Emax [9]	combination Emax [10]	combination Emax [11]	combination Emax [12]	combination Emax [13]	combination Emax [14]	combination Emax [15]	combination Emax [16]	combination Emax [17]	combination Emax [18]	combination Emax [19]	combination Emax [20]
COc1nnc2ccc(N3CCC(c4ccc(OCCN5CCN(C)C(=O)[C@H]5C)cc4)CC3)nn12 [AZD5153] + Cn1cnc2c(F)c(Nc3ccc(Br)cc3Cl)c(C(=O)NOCCO)cc21 [Selumetinib] (first compound max 1 µM, 7x7, partner max 10 µM)	0.957	0.99	0.615	0.881	0.401	0.628	0.721	0.762	0.507	0.873	0.805	0.893	0.592	0.59	0.942	0.949	0.458	0.684	0.27	0.778
COc1cccc(OCCCN)c1-c1cc(Nc2cnc(C#N)cn2)n[nH]1 [Prexasertib] + CCc1c2c(nc3ccc(O)cc13)-c1cc3c(c(=O)n1C2)COC(=O)[C@]3(O)CC [SN-38] (first compound max 1 µM, 7x7, partner max 0.3 µM)	0.989	1	0.26	1	1	0.95	1	1	0.881	0.983	0.702	0.943	0.984	0.707	0.986	1	1	0.987	0.423	0.856
NC1(C(=O)N[C@@H](CCO)c2ccc(Cl)cc2)CCN(c2ncnc3[nH]ccc23)CC1 [Capivasertib] + Cn1cnc2c(F)c(Nc3ccc(Br)cc3Cl)c(C(=O)NOCCO)cc21 [Selumetinib] (first compound max 10 µM, 7x7, partner max 10 µM)	0.604	0.748	0.544	0.771	0.48	0.188	0.603	0.438	0.894	0.746	0.405	0.233	0.494	0.545	0.947	0.805	0.52	0.313	0.318	0.586
C[C@@H](c1ccc2nccn2c1)n1nnc2ncc(-c3cnn(C)c3)nc21 [Savolitinib] + Cc1c2c(nn1C)CSCc1cc(n(C)n1)CSc1cc(c3ccccc3c1)OCCCc1c(C(=O)O)n(C)c3c-2c(Cl)ccc13 [AZD5991] (first compound max 1 µM, 7x7, partner max 1 µM)	0.289	0.29	0.161	0.0914	0.278	0.975	0.202	0.412	0.244	0.191	0.146	0.172	0.217	0.183	1	1	0.743	0.395	0.16	0.161
COc1nnc2ccc(N3CCC(c4ccc(OCCN5CCN(C)C(=O)[C@H]5C)cc4)CC3)nn12 [AZD5153] + Cc1c2c(nn1C)CSCc1cc(n(C)n1)CSc1cc(c3ccccc3c1)OCCCc1c(C(=O)O)n(C)c3c-2c(Cl)ccc13 [AZD5991] (first compound max 1 µM, 7x7, partner max 1 µM)	0.902	1	0.51	0.849	0.513	1	0.616	0.996	0.587	0.746	0.825	0.845	0.65	0.306	1	1	0.955	0.986	0.441	0.459
CC(=O)c1c(C)c2cnc(Nc3ccc(N4CCNCC4)cn3)nc2n(C2CCCC2)c1=O [Palbociclib] + Cc1c2c(nn1C)CSCc1cc(n(C)n1)CSc1cc(c3ccccc3c1)OCCCc1c(C(=O)O)n(C)c3c-2c(Cl)ccc13 [AZD5991] (first compound max 10 µM, 7x7, partner max 1 µM)	0.673	0.83	0.351	0.737	0.638	0.981	0.477	0.586	0.388	0.474	0.221	0.51	0.297	0.305	0.967	1	0.917	0.776	0.367	0.229
